Laboratory results published in US9624477B2 (priority 2004, dated 2017).

Tested on: Pi-omega3Des
Assay type: cell-based, Phytophthora infestans
Settings: FIG. 9; for desaturation of phospholipid-bound fatty acid (sn1 or sn2 position): fatty acids bound in phospholipids; for phospholipid converted by ω-3-desaturase: desaturation products also found in the neutral lipids

| Compound | desaturation of phospholipid-bound fatty acid (sn1 or sn2 position) | phospholipid converted by ω-3-desaturase |
| --- | --- | --- |
| CCCCC/C=C\C/C=C\C/C=C\CCCCCCC(=O)O [C20:3 ω-6-fatty acid, dihomo-γ-linolenic acid, reference compound] | does not differentiate between fatty acids bound at the sn1 or sn2 position |  |
| CCCCC/C=C\C/C=C\C/C=C\C/C=C\CCCC(=O)O [arachidonic acid, reference compound] | desaturation of phospholipid-bound arachidonic acid to EPA |  |
| phosphatidylcholine |  | converts |
| phosphatidylethanolamine |  | converts |
| phosphatidylinositol |  | converts |
